Measured values reported in PMC4801406, “MTH1 Substrate Recognition—An Example of Specific Promiscuity” (PLoS ONE, 2016).
Several values for one entry are separate records, joined by “and”; a condition that tells them apart may be missing. Identical values can stand only once.

Biological target: T1, MTH1 (Homo sapiens, UniProt P36639)
T1 construct: Full length p18 isoform MTH1 (M1-156) with an N-terminal 6-His TEV protease cleavable tag; 6-His (TEV-cleavable) (N, cleaved yes); made in house; host or cells: E. coli Gold BL21(DE3)
Assay: MTH1 substrate Km determination (PPiLight pyrophosphate detection; malachite green coupled assay)
Assay type: biochemical
Conditions: this publication; 0.2 nM MTH1, substrate 0–300 μM
Method: MTH1 substrate Km determination assay conditions were 0.2 nM MTH1 and a concentration range of substrate from 0–300 μM, diluted in MTH1 reaction buffer (100 mM HEPES pH 7.5, 10 mM MgCl, 1 mM DTT and 0.005% Tween 20). After a reaction time of 15 minutes, pyrophosphate (PPi) released by the reaction was detected using the PPiLight inorganic pyrophosphate assay kit from Lonza and luminescence was monitored using the Perkin Elmer EnVision multimode plate reader. Substrates dGTP and 2-OH—dATP were sourced from Jena Bioscience. Substrates 8-oxo-dGTP, 8-oxo-rGTP, 8-oxo-dATP, 8-oxo-rATP and 2-OH-rATP were sourced from TriLink BioTechnologies.
All oxidised ATP-derived substrates were then tested using an assay format based on the enzymatic hydrolysis of the nucleotide substrate by purified human recombinant MTH1 to form the corresponding monophosphate nucleotide and pyrophosphate. An excess of inorganic pyrophosphatase was added to the assay, which allows the quantification of released inorganic phosphate as a measure of product levels in a coupled enzymatic assay. Inorganic phosphate was measured using an absorbance assay based on malachite green as described by Baykov et al.. The assay buffer in which MTH1, inorganic pyrophosphatase and substrates were diluted consisted of 100mM Tris at pH 7.4, 40 mM NaCl, 10 mM MgCl, 0.005% Tween 20 and 1 mM DTT. The final conditions in the assay during enzymatic incubation were 0.2 nM recombinant human MTH1, a three fold dilution range of 0–300 μM oxidised nucleotide substrate and 0.2U per ml inorganic pyrophosphatase.

| SMILES | Km |
| --- | --- |
| Nc1[nH]c(=O)nc2c1ncn2[C@H]1C[C@H](O)[C@@H](COP(=O)(O)OP(=O)(O)OP(=O)(O)O)O1 [Compound 2-OH-dATP, 2-OH-dATP] | 14 ± 6 µM |
| Nc1[nH]c(=O)nc2c1ncn2[C@@H]1O[C@H](COP(=O)(O)OP(=O)(O)OP(=O)(O)O)[C@@H](O)[C@H]1O [Compound 2-OH-rATP, 2-OH-rATP] | 13.4 µM and 13 µM |
| Nc1ncnc2c1[nH]c(=O)n2[C@@H]1O[C@H](COP(=O)(O)OP(=O)(O)OP(=O)(O)O)[C@@H](O)[C@H]1O [Compound 8-oxo-rATP, 8-oxo-rATP] | 241 µM and 240 µM |
| Nc1nc2c(ncn2[C@H]2C[C@H](O)[C@@H](COP(=O)(O)OP(=O)(O)OP(=O)(O)O)O2)c(=O)[nH]1 [dGTP] | 420 µM |
| Nc1ncnc2c1[nH]c(=O)n2[C@H]1C[C@H](O)[C@@H](COP(=O)(O)OP(=O)(O)OP(=O)(O)O)O1 [Compound 8-oxo-dATP, 8-oxo-dATP] | 7.6 ± 0.5 µM |
| Nc1nc2c([nH]c(=O)n2[C@@H]2O[C@H](COP(=O)(O)OP(=O)(O)OP(=O)(O)O)[C@@H](O)[C@H]2O)c(=O)[nH]1 [Compound 8-oxo-rGTP, 8-oxo-rGTP] | 82 ± 45 µM |

Biological target: T1, MTH1
Assay: 2D-NMR (1H-15N SOFAST-HMQC) titration, Kd from chemical shift perturbations
Assay type: binding
Conditions: 100 μM 15N-MTH1, 298 K, pH 7.4
Method: Uniformly ^15N-labeled MTH1 was prepared as above with the TB media replaced M9 minimal media supplemented with 5 g/l of IsoGro base powder (^15N, 98%, Isotec) and 2 g/l of glucose. NMR samples were 100 μM in 50mM HEPES pH 7.4, 50 mM NaCl, 1 mM TCEP, 0.1 mM EDTA, 0.02% NaN3 and employing 1% d^6-DMSO as a lock signal. Spectra were acquired at 298 K on a Bruker Avance 600 MHz spectrometer running Topspin 2.1, equipped with a 5mm TCI cryoprobe with Z-axis gradients. The protein was titrated with compound stocks (100 mM in d6-DMSO) to give typical final compound concentrations 0, 50, 100, 198, 396, 593, 984, 1949 and 3824 μM; these were measured using ^1H-^15N-SOFAST-HMQC [17] experiments recorded with […] (t2,t1) complex points (in States-TPPI mode), and 9615x1624 Hz (^1H,^15N) spectral widths, (53.4 ms x 30.8 ms) acquisition times, respectively). The affinity of the compounds was determined via simultaneous nonlinear fitting of fast-exchange chemical shift perturbations (typically 5 amide correlations, employing absolute value of the linear ^1H,^15N chemical shift vector), with the GraFit package against compound concentration using a mass action binding isotherm equation.

| SMILES | Kd [µM] |
| --- | --- |
| Cn1c(=O)[nH]c2c(=O)[nH]c(N)nc21 [Compound 1] | 400 |
| CNc1nc2c(ncn2C)c(=O)[nH]1 [Compound 3] | 82 ± 6 |
| Cc1cc(OCCCO)nc(N)n1 [Compound 6] | < 5 |
| Cn1cnc2c(O)nc(N)nc21 [Compound 2] | 1100 |
| CNc1cc(=O)[nH]c(=O)[nH]1 [Compound 7] | < 5 |
| CN(C)c1nc2c(ncn2C)c(=O)[nH]1 [Compound 4] | 2200 |
| CC(=O)Nc1ccc2c(c1)ncn2C [Compound 5] | 95 ± 35 |

Biological target: T1, MTH1
Assay: Biochemical IC50 for fragments (Fig 5)
Conditions: not given

| SMILES | IC50 [µM] |
| --- | --- |
| Cn1c(=O)[nH]c2c(=O)[nH]c(N)nc21 [Compound 1] | > 100 |
| CNc1nc2c(ncn2C)c(=O)[nH]1 [Compound 3] | 59 |
| Cc1cc(OCCCO)nc(N)n1 [Compound 6] | 4.5 |
| Cn1cnc2c(O)nc(N)nc21 [Compound 2] | > 100 |
| CNc1cc(=O)[nH]c(=O)[nH]1 [Compound 7] | 1.5 |
| CN(C)c1nc2c(ncn2C)c(=O)[nH]1 [Compound 4] | > 100 |
| CC(=O)Nc1ccc2c(c1)ncn2C [Compound 5] | > 80 |

Biological target: T2, Histidine-tagged MTH1 (isoform p18 (M1-V156)) (Homo sapiens, UniProt P36639)
T2 construct: Histidine-tagged MTH1 (isoform p18 (M1-V156)) was immobilized; made in house; host or cells: E. coli Gold BL21(DE3)
Assay: Surface plasmon resonance (SPR) equilibrium binding
Conditions: steady-state, 1:1 Langmuir fit
Method: SPR experiments were performed using a Biacore T200 biosensor (GE Healthcare). Series S NTA sensor chips (GE Healthcare) were used. All experiments were carried out using assay buffer containing; 50 mM HEPES pH 7.5, 150 mM NaCl, 0.005% Tween-20 (v/v) and 1% DMSO (v/v) as running buffer. Typically, 10 mM DMSO stocks of compounds were diluted 1:100 (v/v) in 50 mM HEPES pH 7.5, 150 mM NaCl, 0.005% Tween-20 (v/v) to form 100 μM intermediate stocks with final DMSO concentration of 1% (v/v). The intermediate solutions were then subsequently diluted using assay buffer to achieve final concentration range.
Histidine-tagged MTH1 (isoform p18 (M1-V156)) was immobilized as the ligand onto NTA sensor chips using a capture coupling method. Assay buffer was used as immobilization buffer. The nitrilotriacetic (NTA) surface was first activated with a 2-min injection of 500 μM NiCl2 in running buffer before the carboxymethyl dextran surface was activated with a 7-min injection of a 1:1 ratio of 0.4 M EDC and 0.1 M NHS. His-tagged protein was diluted into running buffer to a concentration of 20 μg/mL and immobilized to the surface with a 7-min injection. Remaining activated groups were blocked with two consecutive 60-sec pulses of 0.5 M Ethanolamine. Typical immobilization levels ranged from 500 to 3000 resonance units (RU).
Biacore T200 Evaluation software (GE Healthcare) was used for data processing and analysis. Equilibrium binding analysis was analyzed by plotting steady-state response level vs. compound concentration and fitting to the Langmuir equation (describing simple 1:1 binary interaction).

| SMILES | Kd [µM] |
| --- | --- |
| CNc1nc2c(ncn2C)c(=O)[nH]1 [Compound 3] | 24 ± 0.4 |
| Cc1cc(OCCCO)nc(N)n1 [Compound 6] | 1.7 |
| CNc1cc(=O)[nH]c(=O)[nH]1 [Compound 7] | 0.81 |
| CC(=O)Nc1ccc2c(c1)ncn2C [Compound 5] | > 40 |

Biological target: T1, MTH1
Assay: not given
Conditions: literature value; ref [4],[34]; cited from earlier work

| SMILES | Km [µM] |
| --- | --- |
| Nc1[nH]c(=O)nc2c1ncn2[C@H]1C[C@H](O)[C@@H](COP(=O)(O)OP(=O)(O)OP(=O)(O)O)O1 [Compound 2-OH-dATP, 2-OH-dATP] | 8.3 |
| Nc1[nH]c(=O)nc2c1ncn2[C@@H]1O[C@H](COP(=O)(O)OP(=O)(O)OP(=O)(O)O)[C@@H](O)[C@H]1O [Compound 2-OH-rATP, 2-OH-rATP] | 4.3 |
| Nc1ncnc2c1[nH]c(=O)n2[C@@H]1O[C@H](COP(=O)(O)OP(=O)(O)OP(=O)(O)O)[C@@H](O)[C@H]1O [Compound 8-oxo-rATP, 8-oxo-rATP] | 51 |
| Nc1nc2c(ncn2[C@H]2C[C@H](O)[C@@H](COP(=O)(O)OP(=O)(O)OP(=O)(O)O)O2)c(=O)[nH]1 [dGTP] | 258 |
| Nc1ncnc2c1[nH]c(=O)n2[C@H]1C[C@H](O)[C@@H](COP(=O)(O)OP(=O)(O)OP(=O)(O)O)O1 [Compound 8-oxo-dATP, 8-oxo-dATP] | 15.2 |
| Nc1nc2c([nH]c(=O)n2[C@@H]2O[C@H](COP(=O)(O)OP(=O)(O)OP(=O)(O)O)[C@@H](O)[C@H]2O)c(=O)[nH]1 [Compound 8-oxo-rGTP, 8-oxo-rGTP] | 55 |

Same assay, conditions: literature value; ref [26]; cited from earlier work

| SMILES | Km [µM] |
| --- | --- |
| Nc1ncnc2c1[nH]c(=O)n2[C@H]1C[C@H](O)[C@@H](COP(=O)(O)OP(=O)(O)OP(=O)(O)O)O1 [Compound 8-oxo-dATP, 8-oxo-dATP] | 13.9 |
